Measurements from patent US5939403A, “Keratan sulfate oligosaccharide fraction and pharmaceutical containing the same” (Seikagaku Corporation, priority 1994, dated 1999).
Structures can show the parent of a compound that is named as a salt.

Experiments:
[1] = system: mesenteric lymph node and submandibular lymph node; assay: Cell differentiation induction: staining concentration of lymph node sections (HE staining); assay type: in vivo, MRL-lpr/lpr mice; settings: four weeks
Experimental: The PBS solution of the purified keratan sulfate disaccharide (III) which was prepared in Example 1 described above at a dose of 1 mg/kg, 5 mg/kg, or 25 mg/kg weight (hereinafter referred to as the 1 mg/kg administered group, the 5 mg/kg administered group, and the 25 mg/kg administered group, respectively), and PBS as the control (hereinafter sometimes referred to as the control group) was intramuscularly injected, respectively, to the femoral region of MRL-lpr/lpr mice seven times a week for four weeks. After that, the mice were subjected to anatomization to prepare the section specimens (HE staining) of mesenteric lymph node and submandibular lymph node. The staining concentrations per unit area of the specimens were analyzed by an image analyzer (PIAS). In the undifferentiated cells, the staining concentration per unit area is low because proportion of the cytoplasm is high and the nuclei is stained thinly. In the differentiated cells, the staining concentration per unit area is high because proportion of the nuclei is high and it is stained thickly.
The results of the analysis of mesenteric lymph nodes and submandibular lymph nodes are shown in FIG. 17 and FIG. 18 with the standard errors, respectively. In the figures, ** represents that it has the significant difference with p<0.01 (wherein "p" means a level of significance by the Bonferroni multiple comparative test). […]

submandibular lymph node = assay: Apoptosis induction: TdT-mediated nick end labeling of submandibular lymph node; assay type: in vivo, MRL-lpr/lpr mice; settings: four weeks
Experimental: The PBS solution of the purified keratan sulfate disaccharide (III) which was prepared in Example 1 described above at a dose of 1 mg/kg, 5 mg/kg, or 25 mg/kg weight (hereinafter referred to as the 1 mg/kg administered group, the 5 mg/kg administered group, and the 25 mg/kg administered group, respectively), and PBS as the control (hereinafter sometimes referred to as the control group) was intramuscularly injected, respectively, to the femoral region of MRL-lpr/lpr mice seven times a week for four weeks. After that, the mice were subjected to anatomization to prepare the section specimens of submandibular lymph node (stained by the method of Gavrieli et al.; Terminal deoxynucleotidyl transferase (TdT)--mediated nick end labeling method; (J. Cell Biol., 119, 493-501 (1992))). In this staining method, apoptosis induced cells can be detected by detecting fragmented DNA ends. The specimens prepared was observed by a light microscope to determine the number of stained cells (the apoptosis induced cells; hereinafter sometimes referred to as the apoptosis cells) per unit area. In the figure, * and ** represent that they have the significant difference with p<0.05 and p<0.01, respectively (wherein "p" means a level of significance by the Bonferroni multiple comparative test). In each group, six mice were used.

papain-induced arthritis = assay: Papain-induced bilateral arthritis model, intramuscular administration (volume of synovial fluid); assay type: in vivo, Japanese white rabbits (female); settings: 0.5 mg/kg intramuscular
Experimental: The anti-inflammatory effect of the keratan sulfate oligosaccharide with rabbits of the papain-induced arthritis model was examined using the volume of synovial fluid as an indication.
Into the articular cavity of both knee joint of Japanese white rabbits (female) of 3 kg weight, 150 μl of the saline solution of papain (1%) was injected to prepare the arthritis model. […]
Seven days after the injection, the blood was drawn from the auricular artery, and plasma containing heparin was separated. […] The calcium concentrations in the plasma and the recovered synovial fluid were determined, and the volume of synovial fluid was calculated from the following formula. […]
The arthritis model was prepared by the method described in (1-1), and one day after injecting papain, 150 μl of the PBS solution of the purified keratan sulfate tetrasaccharide (I) (1% solution; 0.5 mg/kg weight) which was prepared in Example 1 was injected into the hip muscle of the left side (hereinafter referred to as "the keratan sulfate tetrasaccharide (I) administered group"). […] Seven days after the injection, the volume of synovial fluid was calculated in the same manner as in (1-1).

carrageenin pleurisy = assay: Carrageenin pleurisy model; assay type: in vivo, Female S.D. rats; settings: six hours
Experimental: The effect of the keratan sulfate oligosaccharide was examined with the carrageenin pleurisy model of rats which is generally used for evaluation of anti-inflammatory agents.
Female S.D. rats (n=37) of about 150 to 170 g weight were used for the test. The λ-carrageenin (Sigma) was dissolved in saline to a concentration of 2%, and the solution was filtered with a 0.8 μm filter. The carrageenin solution obtained was intrathoracically administered at 100 μl/animal to prepare the pleurisy model.
To the pleurisy model of rats (n=19) described above, the keratan sulfate tetrasaccharide (I) dissolved in PBS was subcutaneously (s.c.) administered in 20 mg/kg or 10 mg/kg dose. And as the positive control, steroid (dexamethasone acetate; Banyu Pharmaceutical) was subcutaneously administered to the eight rats described above in 150 μg/kg which was the clinical dose. As the negative control, PBS was subcutaneously administered to the 10 rats. Each administration was carried out immediately after the administration of carrageenin.
Each rat was anatomized six hours after the administration of λ-carrageenin. The thoracic cavity of the rats was opened to collect the retained pleural fluid using a 2-ml syringe with probe. After that, inside of the thoracic cavity was washed with 1 ml of saline, and the washing solution was recovered. The volume of the pleural fluid recovered with the syringe was determined, and the number of leukocyte (cell number) in the pleural fluid was determined by an automatic cytometer. The results are be shown in FIG. 8 and FIG. 9, respectively. In the figures, * and ** represent that they have the significant difference with p<0.05 and p<0.01, respectively (wherein "p" means a level of significance by the Duncan test).

Compound | staining concentration per unit area (FIG. 17, FIG. 18) ([1]; 5 mg/kg and 25 mg/kg i.m., p<0.01) | staining concentration per unit area (FIG. 17, FIG. 18) ([1]; any dose (1, 5, 25 mg/kg i.m.)) | number of the apoptosis cells (FIG. 22) (submandibular lymph node; 5 mg/kg i.m.) | number of the apoptosis cells (FIG. 22) (submandibular lymph node; any dose (1, 5, 25 mg/kg i.m.)) | volume of synovial fluid (result in words) (papain-induced arthritis; bilateral model) | Volume of Synovial Fluid (papain-induced arthritis; 7 days, n = 12, SD 65.8, p < 0.01, control 729, normal 437) [µL] | number of leukocyte in pleural fluid (FIG. 9) (carrageenin pleurisy; 10 mg/kg and 20 mg/kg s.c.) | volume of pleural fluid (FIG. 8) (carrageenin pleurisy; 10 mg/kg s.c.) | volume of pleural fluid (FIG. 8), dose comparison (carrageenin pleurisy; 10 mg/kg vs 20 mg/kg s.c.)
CC(=O)N[C@H]1C(O)O[C@H](COS(=O)(=O)O)[C@@H](O[C@@H]2O[C@H](COS(=O)(=O)O)[C@H](O)[C@H](O)[C@H]2O)[C@@H]1O (stereo partly drawn) [keratan sulfate disaccharide (III), Gal(6S)β1-4GlcNAc(6S)] | the staining concentrations increased significantly compared with the control group | an increase in the staining concentration per unit area (decrease in relative lightness) was observed | the number of the apoptosis cells increased significantly to the control group | an increase in the number of the apoptosis cells was observed |  |  |  |  | 
CC(=O)N[C@H]1[C@H](O[C@H]2[C@@H](O)[C@@H](COS(=O)(=O)O)O[C@@H](O[C@H]3[C@H](O)[C@@H](NC(C)=O)C(O)O[C@@H]3COS(=O)(=O)O)[C@@H]2O)O[C@H](COS(=O)(=O)O)[C@@H](O[C@@H]2O[C@H](COS(=O)(=O)O)[C@H](O)[C@H](O)[C@H]2O)[C@@H]1O (stereo partly drawn) [keratan sulfate tetrasaccharide (I), Gal(6S)β1-4GlcNAc(6S)β1-3Gal(6S)β1-4GlcNAc(6S)] |  |  |  |  | significantly less than that in the control group | 561 | significantly less than that in the negative control group, and dose-dependent decrease was observed | significantly less than that in the negative control group | almost same as that in the keratan sulfate tetrasaccharide (I) 20 mg/kg administered group
